Test results from patent publication US9353150B2, “Substituted pyrazino[1′,2′:1 ,5]pyrrolo[2,3-b]-indole-1,4-diones for cancer treatment” (Massachusetts Institute of Technology, priority 2012, dated 2016).
Read-outs that look alike come from different tables or passages of the source.

Columns and labels:
human cancer cell lines = experiment: Anticancer activity in human cancer cell lines, not tied to one cell line; format: cell-based; conditions: human cancer cell lines, 72-hour exposure
Method: (§1) Certain synthesized compounds were screened for their ability to induce death in two human cancer cell lines: U-937 (leukemic monocyte lymphoma) and HeLa (cervical cancer).
(§2) Certain provided compounds were tested in culture against a panel of three supplementary human cancer cell lines representing three additional tumor histologies (H460, lung carcinoma; 786-O, renal carcinoma; MCF-7, breast carcinoma). As shown in Table E1-2, the ETPs retain their potency across the cell lines. In some embodiments, a provided compound is active in all cell lines. In some embodiments, a provide compound can be used to selectively target certain cells and/or cancers. […] Without the intention to be limited, Applicant notes that certain cell lines could be more sensitive to provided compounds; for example, U-937 and HeLa are slightly more sensitive to the ETPs than the other three cell lines.
(§3) Adherent cells (HeLa, H460, 786-O, and MCF7) were added into 96-well plates (5,000 cells/well for HeLa cell line; 2,000 cells/well for H460, 786-O, and MCF7 cell lines) in 100 μL media and were allowed to adhere for 2-3 hours. Compounds were solubilized in DMSO as 100× stocks, added directly to the cells (100 μL final volume), and tested over a range of concentrations in triplicate (1% DMSO final) on a half-log scale. Concentrations tested ranged from […] to 10 μM, depending on the potency of the compound. DMSO and cell-free wells served as the live and dead control, respectively. After 72 hours of continuous exposure, the plates were evaluated using the SRB colorimetric assay as described previously (Vichai, V.; Kirtikara, K. Nature Prot. 2006, 1, 1112). Briefly, media was removed from the plate, and cells were fixed by the addition of 100 μL cold 10% trichloroacetic acid in water. After incubating at 4° C. for an hour, the plates were washed in water and allowed to dry. Sulforhodamine B was added as a 0.057% solution in 1% acetic acid (100 μL), and the plates were incubated at room temperature for 30 minutes, washed in 1% acetic acid, and allowed to dry. The dye was solubilized by adding 10 mM Tris base solution (pH 10.5, 200 μL) and incubating at room temperature for 30 minutes. Plates were read at λ=510 nm. IC50 values were determined from three or more independent experiments using TableCurve (San Jose, Calif.).
(§4) In a 96-well plate, compounds were pre-added as DMSO stocks in triplicate to achieve a final concentration of 1%. DMSO and cell-free wells served as the live and dead control, respectively. U-937 (5,000 cells/well) cells were distributed in 100 μL media to the compound-containing plate. After 72 hours, cell viability was assessed by adding 20 μL of a PMS/MTS solution (Cory, A. H.; Owen, T. C.; Barltrop, J. A.; Cory, J. G. Cancer Commun. 1991, 3, 207) to each well, allowing the dye to develop at 37° C. until the live control had processed MTS, and reading the absorbance at λ=490 nm. IC50 values were determined from three or more independent experiments using TableCurve (San Jose, Calif.).

786-O (renal carcinoma) = experiment: 72-hour IC50 determination for adherent cells using sulforhodamine B (SRB); format: cell-based, human; conditions: error is standard deviation of the mean, n ≧ 3, read-out: 786-O, 72-hour IC50 (Table E1-2)
Method: as §2
(§5) Cells were grown in media supplemented with fetal bovine serum (FBS) and antibiotics ([…]). Specifically, experiments were performed using the following cell lines and media compositions: U-937, HeLa, H460, and 786-O (RPMI-1640+10% FBS), and MCF7 (EMEM+10% FBS). Cells were incubated at 37° C. in a 5% CO2, 95% humidity atmosphere.
as §3

MCF-7 (breast carcinoma) = experiment: as above; format: cell-based, human; conditions: error is standard deviation of the mean, n ≧ 3, read-out: MCF-7, 72-hour IC50 (Table E1-2)
Method: as §2, §5, §3

H460 (lung carcinoma) = experiment: as above; format: cell-based, human; conditions: error is standard deviation of the mean, n ≧ 3, read-out: H460, 72-hour IC50 (Table E1-2)
Method: as §2, §5, §3

[1] = test system: U-937 (hystiocytic lymphoma); experiment: 72-hour IC50 determination for non-adherent cells using MTS; format: cell-based, human
Method: as §1, §5, §4

[2] = test system: HeLa (cervical carcinoma); experiment: 72-hour IC50 determination for adherent cells using sulforhodamine B (SRB); format: cell-based, human
Method: as §1, §5, §3

[3] = 72-hour exposure, MTS, error is standard deviation of the mean, n ≧ 3, read-out: U-937, 72-hour IC50 (Table E1-1)
[4] = 72-hour exposure, MTS, error is standard deviation of the mean, n ≧ 3, read-out: U-937, 72-hour IC50 (Table E1-2)
[5] = 72-hour exposure, SRB, error is standard deviation of the mean, n ≧ 3, read-out: HeLa, 72-hour IC50 (Table E1-1)
[6] = 72-hour exposure, SRB, error is standard deviation of the mean, n ≧ 3, read-out: HeLa, 72-hour IC50 (Table E1-2)
[7] = Homo sapiens, 786-0, 72-hour exposure
[8] = Homo sapiens, MCF7, 72-hour exposure
[9] = Homo sapiens, NCI-H460, 72-hour exposure
[10] = Homo sapiens, U-937, 72-hour exposure, MTS, error is standard deviation of the mean, n ≧ 3, read-out: U-937, 72-hour IC50 (Table E1-1)
[11] = Homo sapiens, HeLa, 72-hour exposure, SRB, error is standard deviation of the mean, n ≧ 3, read-out: HeLa, 72-hour IC50 (Table E1-1)
[12] = Homo sapiens, U-937, 72 h, read-out: U-937, 72-hour IC50 (Table E1-1)
[13] = Homo sapiens, HeLa, 72 h, read-out: HeLa, 72-hour IC50 (Table E1-1)

Row | SMILES | anticancer activity, in words (human cancer cell lines) | IC50 (786-O (renal carcinoma); 72-hour exposure) [nM] | IC50 (MCF-7 (breast carcinoma); 72-hour exposure) [nM] | IC50 (H460 (lung carcinoma); 72-hour exposure) [nM] | IC50 [1, 3] [nM] | IC50 [1, 4] [nM] | IC50 [2, 5] [nM] | IC50 [2, 6] [nM] | also measured
1 | CN1C(=O)[C@@]23C[C@]4([C@]56C[C@@]78SS[C@@](C)(C(=O)N7[C@H]5Nc5ccccc56)N(C)C8=O)c5ccccc5N[C@@H]4N2C(=O)[C@]1(C)SS3 [Compound 3, (+)-12,12′-dideoxyverticillin A] | active across the board | 33.5 ± 12.6 | 28.4 ± 4.5 | 42 ± 15 | 15.5 ± 2.9 | 15.5 ± 2.9 | 7.2 ± 3 | 7.2 ± 3 | IC50 ([1]; 72-hour exposure, read-out: IC50 (U-937)): 15.5 nM; IC50 ([2]; 72-hour exposure, read-out: IC50 (HeLa)): 7.2 nM
2 | CN1C(=O)[C@@]23C[C@]4([C@]56C[C@@]78SS[C@@](CO)(C(=O)N7[C@H]5Nc5ccccc56)N(C)C8=O)c5ccccc5N[C@@H]4N2C(=O)[C@]1(CO)SS3 [Compound 4, (+)-chaetocin A] | active across the board | 26.5 ± 7.7 | 50 ± 16 | 53 ± 23 | 0.81 ± 0.15 | 0.81 ± 0.15 | 6.9 ± 2 | 6.9 ± 2 | –
3 | CN1C(=O)[C@@]23C[C@]4([C@]56C[C@@]78SSSS[C@@](CO)(C(=O)N7[C@H]5Nc5ccccc56)N(C)C8=O)c5ccccc5N[C@@H]4N2C(=O)[C@]1(CO)SSSS3 [Compound 6, (+)-12,12′-dideoxychetracin A] | active across the board | – | – | – | – | – | – | – | IC50 (786-O (renal carcinoma); [7]): 16 ± 2.4 nM; IC50 (MCF-7 (breast carcinoma); [8]): 22.5 ± 6 nM; IC50 (H460 (lung carcinoma); [9]): 39.3 ± 41 nM; IC50 [1, 10]: 1.3 ± 0.5 nM; IC50 ([1]; Homo sapiens, U-937, 72-hour exposure, MTS, error is standard deviation of the mean, n ≧ 3, read-out: U-937, 72-hour IC50 (Table E1-2)): 1.3 ± 0.5 nM; IC50 ([1]; Homo sapiens, U-937, 72-hour exposure, read-out: IC50 (U-937)): 0.75 to 1.3 nM; IC50 [2, 11]: 5.6 ± 1 nM; IC50 ([2]; Homo sapiens, HeLa, 72-hour exposure, SRB, error is standard deviation of the mean, n ≧ 3, read-out: HeLa, 72-hour IC50 (Table E1-2)): 5.6 ± 1 nM; IC50 ([2]; Homo sapiens, HeLa, 72-hour exposure, read-out: IC50 (HeLa)): 5.6 to 6.9 nM
4 | CN1C(=O)[C@@]23C[C@]4(c5c[nH]c6ccccc56)c5ccccc5N[C@@H]4N2C(=O)[C@@H]1SS3 [Compound 10, (+)-12-deoxybionectin A] | – | – | – | – | – | – | – | – | IC50 (786-O (renal carcinoma); [7]): 181 ± 26 nM; IC50 (MCF-7 (breast carcinoma); [8]): 156 ± 18 nM; IC50 (H460 (lung carcinoma); [9]): 215 ± 100 nM; IC50 [1, 12]: 17.4 ± 1.1 nM; IC50 ([1]; Homo sapiens, U-937, 72 h, read-out: U-937, 72-hour IC50 (Table E1-2)): 17.4 ± 1.1 nM; IC50 [2, 13]: 117 ± 26 nM; IC50 ([2]; Homo sapiens, HeLa, 72 h, read-out: HeLa, 72-hour IC50 (Table E1-2)): 117 ± 26 nM
5 | CC(=O)OC[C@]12SS[C@@]3(C[C@]4([C@]56C[C@@]78SS[C@@](COC(C)=O)(C(=O)N7[C@H]5Nc5ccccc56)N(C)C8=O)c5ccccc5N[C@@H]4N3C1=O)C(=O)N2C [Compound 15] | – | 95 ± 23 | 77 ± 36 | 140 ± 82 | 4.7 ± 1.3 | 4.7 ± 1.3 | 14.1 ± 7.4 | 14.1 ± 7.4 | –
6 | CC(=O)OC[C@]12SSS[C@@]3(C[C@]4([C@]56C[C@@]78SSS[C@@](COC(C)=O)(C(=O)N7[C@H]5Nc5ccccc56)N(C)C8=O)c5ccccc5N[C@@H]4N3C1=O)C(=O)N2C [Compound 16] | – | 204 ± 40 | 263 ± 98 | 187 ± 79 | 9.7 ± 2.1 | 9.7 ± 2.1 | 70 ± 20 | 70 ± 20 | –
7 | CC(=O)OC[C@]12SSS[C@@]3(C[C@]4([C@]56C[C@@]78SSS[C@@](COC(C)=O)(C(=O)N7[C@H]5N(C(=O)C(F)(F)F)c5ccccc56)N(C)C8=O)c5ccccc5N(C(=O)C(F)(F)F)[C@@H]4N3C1=O)C(=O)N2C [Compound 17] | – | 189 ± 26 | > 333 | 179 ± 88 | 8.9 ± 2.3 | 8.9 ± 2.3 | 28.1 ± 2.2 | 28.1 ± 2.2 | –
8 | CSS[C@H]1C(=O)N2[C@H]3N(S(=O)(=O)c4ccccc4)c4ccccc4[C@@]3(c3c[nH]c4ccccc34)C[C@]2(SSC)C(=O)N1C [Compound 46, C3-(Indol-3′-yl)bis(methyldlsulfane)] | competent anticancer agents | – | – | – | – | – | – | – | IC50 [1, 10]: 20.4 ± 9 nM; IC50 [2, 11]: 36.6 ± 3.9 nM
9 | CN1C(=O)[C@@]23C[C@]4(c5c[nH]c6ccccc56)c5ccccc5N(S(=O)(=O)c5ccccc5)[C@@H]4N2C(=O)[C@]1(C)SS3 [Compound 60, C3-(Indol-3′-yl) epidithiodiketopiperazines] | – | 907 ± 48 | 327 ± 36 | 165 ± 65 | 56 ± 23 | 56 ± 23 | 67 ± 11 | 67 ± 11 | –
10 | CCCC12CC34SSC(C)(C(=O)N3C1N(S(=O)(=O)c1ccccc1)c1ccccc12)N(C)C4=O (stereo not drawn) [Compound 61, β-C3-Propyl epidithiodiketopiperazine] | substantially lower potencies | – | – | – | – | – | – | – | IC50 [1, 12]: > 1000 nM; IC50 [2, 13]: > 1000 nM
11 | CN1C(=O)[C@]23C[C@]4(c5c[nH]c6ccccc56)c5ccccc5N(S(=O)(=O)c5ccccc5)[C@@H]4N2C(=O)[C@@]1(C)SS3 [Compound 62, C3-(Indol-3′-yl) epidithiodiketopiperazines] | inactive | – | – | – | > 1000 | – | > 1000 | – | –
12 | CCCC12CC34SSC(C)(C(=O)N3C1N(S(=O)(=O)c1ccccc1)c1ccccc12)N(C)C4=O (stereo not drawn) [Compound 63, α-C3-Propyl epidithiodiketopiperazine] | inactive | – | – | – | – | – | – | – | IC50 ([1]; read-out: U-937, 72-hour IC50 (Table E1-1), 72-hour exposure, MTS, error is standard deviation of the mean, n ≧ 3): > 1000 nM; IC50 ([2]; read-out: HeLa, 72-hour IC50 (Table E1-1), 72-hour exposure, SRB, error is standard deviation of the mean, n ≧ 3): > 1000 nM
13 | CCC[C@]12C[C@@]34SC(=S)S[C@@](C)(C(=O)N3C1N(S(=O)(=O)c1ccccc1)c1ccccc12)N(C)C4=O (stereo partly drawn) [Compound 65, C3-Propyl dithiepanethiones] | substantially lower potencies | – | – | – | – | – | – | – | IC50 [1, 10]: > 1000 nM; IC50 [2, 11]: > 1000 nM
14 | CN1C(=O)C23CC4(c5c[nH]c6ccccc56)c5ccccc5N(S(=O)(=O)c5ccccc5)C4N2C(=O)C1(C)SC(=S)S3 (stereo not drawn) [Compound 66, C3-(Indo-3′-v)dithiepanethiones] | inactive | – | – | – | > 1000 | – | > 1000 | – | –
15 | CCC[C@]12CC34SC(=S)SC(C)(C(=O)N3C1N(S(=O)(=O)c1ccccc1)c1ccccc12)N(C)C4=O (stereo partly drawn) [Compound 67, C3-Propyl dithiepanethiones] | inactive | – | – | – | – | – | – | – | IC50 [1, 10]: > 1000 nM; IC50 [2, 11]: > 1000 nM
